Patent publication US12083094B2, “Cannabinoid composition and methods of treatment using the same” (CANNPAL ANIMAL THERAPEUTICS LIMITED, priority 2018, dated 2024)
Several values for one entry are separate records, joined by “and”; a condition that tells them apart may be missing. Equal entries are not always repeated.

Test: Blood sampling for THC and CBD plasma concentration after single oral dosing
Settings: for concentration at 12 h: 12 hours post administration; for AUC: AUC for CBD concentration, canine
Experimental: Two compositions, IVP1 and IVP2, were administered in varying amounts in the study.
Dosage volumes were calculated prior to Day 0, to provide the target dosage in mg/kg bodyweight based on actual dog bodyweights and IVP active ingredient composition based on the Certificates of Analysis.
Blood samples of approximately 5 mL were collected at each drug concentration sampling time-point from each animal using 22-gauge needles and 5 mL syringes.
The data points from Table 4 and Table 5 were also plotted and these graphs are set out in FIGS. 1-16.

## C=C(C)[C@@H]1CCC(C)=C[C@H]1c1c(O)cc(CCCCC)cc1O [CBD, Cannabidiol]
dog, plasma, oral, CBD concentration in blood plasma, mean of dogs 5-8, 0.24 mg/kg CBD + 0.12 mg/kg THC oral once, 32 h
  concentration at 32 h: 0.34 ng/mL
dog, plasma, oral, CBD concentration in blood plasma, mean of dogs 5-8, 0.24 mg/kg CBD + 0.12 mg/kg THC oral once, 48 h
  concentration at 48 h: 0.13 ng/mL
dog, plasma, oral, CBD concentration in blood plasma, mean of dogs 5-8, 0.24 mg/kg CBD + 0.12 mg/kg THC oral once, 72 h
  concentration at 72 h: 0 µg/mL
dog, plasma, oral, CBD concentration recorded in subjects, 16 hours post administration
  concentration at 16 h: 0.26 ng/mL
dog, plasma, oral, CBD concentration recorded in subjects, 32 hours post administration
  concentration at 32 h: 0.28 ng/mL
dog, plasma, oral, highest level of CBD recorded
  concentration at 12 h: 0.88 ng/mL
dog, plasma, oral, lowest level of CBD recorded in a subject
  concentration at 12 h: 0.23 ng/mL
dog, plasma, po
  half-life: 12.6 h
dog, plasma, po, 0.12 mg/kg, 0.12 mg/kg CBD in combination with 0.24 mg/kg THC
  AUC: 0.03 to 0.05 µg·h/mL
dog, plasma, po, 0.24 mg/kg
  Cmax: 5 to 69 ng/mL
dog, plasma, po, 0.24 mg/kg, 0.24 mg/kg CBD in combination with 0.12 mg/kg THC
  AUC: 0.095 to 0.11 µg·h/mL
Individual dogs 1-4, 0.12 mg/kg CBD + 0.24 mg/kg THC oral once, 0 h
  CBD concentration in blood plasma: 0 ng/mL
Individual dogs 1-4, 0.12 mg/kg CBD + 0.24 mg/kg THC oral once, 0.67 h
  CBD concentration in blood plasma: 15.60 ng/mL and 18.10 ng/mL and 5.26 ng/mL and 10.10 ng/mL
Individual dogs 1-4, 0.12 mg/kg CBD + 0.24 mg/kg THC oral once, 1 h
  CBD concentration in blood plasma: 12.00 ng/mL and 13.60 ng/mL and 5.99 ng/mL and 13.10 ng/mL
Individual dogs 1-4, 0.12 mg/kg CBD + 0.24 mg/kg THC oral once, 1.5 h
  CBD concentration in blood plasma: 7.99 ng/mL and 9.07 ng/mL and 9.84 ng/mL
Individual dogs 1-4, 0.12 mg/kg CBD + 0.24 mg/kg THC oral once, 2 h
  CBD concentration in blood plasma: 4.48 ng/mL and 8.08 ng/mL and 8.72 ng/mL
Individual dogs 1-4, 0.12 mg/kg CBD + 0.24 mg/kg THC oral once, 3 h
  CBD concentration in blood plasma: 2.83 ng/mL and 2.33 ng/mL and 5.83 ng/mL and 6.25 ng/mL
Individual dogs 1-4, 0.12 mg/kg CBD + 0.24 mg/kg THC oral once, 4 h
  CBD concentration in blood plasma: 1.95 ng/mL and 1.24 ng/mL and 4.08 ng/mL and 4.31 ng/mL
Individual dogs 1-4, 0.12 mg/kg CBD + 0.24 mg/kg THC oral once, 6 h
  CBD concentration in blood plasma: 1.56 ng/mL and 0.76 ng/mL and 2.99 ng/mL and 2.75 ng/mL
Individual dogs 1-4, 0.12 mg/kg CBD + 0.24 mg/kg THC oral once, 8 h
  CBD concentration in blood plasma: 1.12 ng/mL and 0.53 ng/mL and 1.23 ng/mL and 2.32 ng/mL
Individual dogs 1-4, 0.12 mg/kg CBD + 0.24 mg/kg THC oral once, 12 h
  CBD concentration in blood plasma: 0.48 ng/mL and 0.23 ng/mL and 0.37 ng/mL and 0.55 ng/mL
Individual dogs 1-4, 0.12 mg/kg CBD + 0.24 mg/kg THC oral once, 16 h
  CBD concentration in blood plasma: 0.00 ng/mL (2×) and 0.26 ng/mL and 0.36 ng/mL
Individual dogs 1-4, 0.12 mg/kg CBD + 0.24 mg/kg THC oral once, 24 h
  CBD concentration in blood plasma: 0.00 ng/mL and 0.23 ng/mL
Individual dogs 5-8, 0.24 mg/kg CBD + 0.12 mg/kg THC oral once, 0 h
  CBD concentration in blood plasma: 0 ng/mL
Individual dogs 5-8, 0.24 mg/kg CBD + 0.12 mg/kg THC oral once, 0.67 h
  CBD concentration in blood plasma: 28.70 ng/mL and 28.10 ng/mL and 10.20 ng/mL and 53.40 ng/mL
Individual dogs 5-8, 0.24 mg/kg CBD + 0.12 mg/kg THC oral once, 1 h
  CBD concentration in blood plasma: 35.20 ng/mL and 20.10 ng/mL and 18.90 ng/mL and 69.10 ng/mL
Individual dogs 5-8, 0.24 mg/kg CBD + 0.12 mg/kg THC oral once, 1.5 h
  CBD concentration in blood plasma: 33.20 ng/mL and 27.00 ng/mL and 12.70 ng/mL and 34.60 ng/mL
Individual dogs 5-8, 0.24 mg/kg CBD + 0.12 mg/kg THC oral once, 2 h
  CBD concentration in blood plasma: 14.90 ng/mL and 12.60 ng/mL and 20.30 ng/mL
Individual dogs 5-8, 0.24 mg/kg CBD + 0.12 mg/kg THC oral once, 3 h
  CBD concentration in blood plasma: 6.33 ng/mL and 6.79 ng/mL and 7.66 ng/mL
Individual dogs 5-8, 0.24 mg/kg CBD + 0.12 mg/kg THC oral once, 4 h
  CBD concentration in blood plasma: 4.07 ng/mL and 4.40 ng/mL and 4.36 ng/mL
Individual dogs 5-8, 0.24 mg/kg CBD + 0.12 mg/kg THC oral once, 6 h
  CBD concentration in blood plasma: 3.40 ng/mL and 2.22 ng/mL and 5.74 ng/mL and 1.87 ng/mL
Individual dogs 5-8, 0.24 mg/kg CBD + 0.12 mg/kg THC oral once, 8 h
  CBD concentration in blood plasma: 4.68 ng/mL and 1.23 ng/mL and 4.36 ng/mL and 0.91 ng/mL
Individual dogs 5-8, 0.24 mg/kg CBD + 0.12 mg/kg THC oral once, 12 h
  CBD concentration in blood plasma: 0.63 ng/mL and 0.85 ng/mL and 0.72 ng/mL
Individual dogs 5-8, 0.24 mg/kg CBD + 0.12 mg/kg THC oral once, 16 h
  CBD concentration in blood plasma: 0.49 ng/mL and 0.65 ng/mL and 0.47 ng/mL
Individual dogs 5-8, 0.24 mg/kg CBD + 0.12 mg/kg THC oral once, 24 h
  CBD concentration in blood plasma: 0.28 ng/mL (2×) and 0.46 ng/mL
Individual dogs 5-8, 0.24 mg/kg CBD + 0.12 mg/kg THC oral once, 32 h
  CBD concentration in blood plasma: 0.39 ng/mL (2×) and 0.32 ng/mL
Individual dogs 5-8, 0.24 mg/kg CBD + 0.12 mg/kg THC oral once, 48 h
  CBD concentration in blood plasma: 0.00 ng/mL (2×) and 0.22 ng/mL and 0.31 ng/mL
Individual dogs 5-8, 0.24 mg/kg CBD + 0.12 mg/kg THC oral once, 72 h
  CBD concentration in blood plasma: 0.00 ng/mL
Up to 72 h after administration
  CBD in the subject's blood: detectable
